Measured values: patent publication US10213415B2, “Compounds as opioid receptor modulators” (JANSSEN PHARMACEUTICA NV, priority 2004, dated 2019)
pEC50, pKi: −log10 of the molar value. Several values for one entry are separate records, joined by “and”; a condition that tells them apart may be missing. Equal values may be shown once. Read-outs that look alike come from different tables or passages of the source.

Experiments:
delta opioid receptor = molecular target: T1, delta opioid receptor (Rattus norvegicus, UniProt P33533); experiment: Rat Brain Delta Opioid Receptor Binding Assay ([3H]DPDPE); details: rat forebrain membranes, margin of error 10-20%
T1 construct: from tissue; host or cells: forebrain of male Wistar rats
Method in brief: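 Rat (male Wistar) forebrain membranes in 50 mM Tris-HCl pH 7.4 with 5 mM MgCl2, incubated with ~4 nM [3H]DPDPE for 2.5 h at 25 °C. Bound ligand collected by filtration and scintillation counting. Single-concentration data given as % inhibition of specific binding; concentration series fitted to Ki.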

human mu opioid receptor = molecular target: T2, human mu opioid receptor (Homo sapiens, UniProt P35372); experiment: Human Mu Opioid Receptor Binding Assay (CHO membranes, 3H-Damgo)
T2 construct: purchased Perkin Elmer RBHOMM400UA; host or cells: Chinese Hamster Ovary cells (recombinant expression)
Method in brief: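 Membranes from CHO cells expressing human mu opioid receptor, 300 μg/mL, in 50 mM Tris pH 7.5, 5 mM MgCl2. Incubated with compound and ³H-Damgo (3.6 nM before mixing) for 2 h at room temperature, filtered, counted by scintillation. Nonspecific binding with 1 μM unlabelled Damgo.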

[1] = molecular target: T3, mu opioid receptor (CHO-hMOR cell membranes) (Homo sapiens, UniProt P35372); experiment: Mu Opioid Receptor Functional Assay: [35S]GTPγS Binding in CHO-hMOR Cell Membranes, Versions 1 and 2; format: biochemical; details: for MOR GTP binding assay_v2 (% I): version 2, % inhibition of agonist-stimulated GTPγS binding; for pEC50: version 2, read-out: MOR GTP binding assay v2 EC50; for MOR GTP binding assay_v1 (% I): version 1, % inhibition of agonist-stimulated GTPγS binding; for MOR GTP assay_v1 % of Basal: version 1, basal binding = 100%
T3 construct: purchased Receptor Biology, Inc. (Baltimore, Md.); host or cells: CHO cells (recombinant expression)
Method in brief: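 CHO-hMOR membranes (10 μg/ml) on WGA SPA beads, preincubated 45 min at 25 °C, then incubated with 0.5 nM [35S]GTPγS in HEPES pH 7.6, 5 mM MgCl2, 100 mM NaCl, 1 mM DTT, 1 mM EDTA. Non-specific binding with 10 μM unlabeled GTPγS; agonist EC50 from concentration-response, antagonism as inhibition of 1 μM SNC80-stimulated binding.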

T3 sequence (P35372 whole entry): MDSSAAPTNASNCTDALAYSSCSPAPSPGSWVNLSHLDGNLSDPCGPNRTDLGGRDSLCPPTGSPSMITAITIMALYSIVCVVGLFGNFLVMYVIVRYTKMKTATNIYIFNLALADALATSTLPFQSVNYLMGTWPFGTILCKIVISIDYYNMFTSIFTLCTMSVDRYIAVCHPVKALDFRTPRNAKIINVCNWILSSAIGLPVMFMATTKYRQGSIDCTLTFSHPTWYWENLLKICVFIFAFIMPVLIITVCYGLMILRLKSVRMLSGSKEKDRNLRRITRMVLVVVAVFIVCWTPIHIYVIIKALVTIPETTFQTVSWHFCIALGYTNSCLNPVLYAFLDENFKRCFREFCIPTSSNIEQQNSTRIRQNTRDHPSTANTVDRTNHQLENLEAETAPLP
T2 sequence (P35372 whole entry): as above
T1 sequence (P33533 whole entry): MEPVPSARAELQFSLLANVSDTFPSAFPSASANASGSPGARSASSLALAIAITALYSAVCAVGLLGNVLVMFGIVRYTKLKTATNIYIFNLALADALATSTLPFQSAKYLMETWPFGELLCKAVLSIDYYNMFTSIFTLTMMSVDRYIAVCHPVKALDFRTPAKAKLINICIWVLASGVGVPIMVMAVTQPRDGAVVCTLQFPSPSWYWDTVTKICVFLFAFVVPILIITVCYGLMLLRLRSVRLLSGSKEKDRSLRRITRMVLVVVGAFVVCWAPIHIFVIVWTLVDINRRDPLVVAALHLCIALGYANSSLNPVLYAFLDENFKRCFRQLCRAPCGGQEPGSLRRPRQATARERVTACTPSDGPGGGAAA

## Cc1cc(O)cc(C)c1C[C@H](N)C(=O)N(C)[C@@H](C)c1nc(-c2ccccc2)c[nH]1 [Cpd 207]
Delta opioid receptor; read-out: r Ki δ
  pKi: 8.28 and 8.27 and 7.83

## COc1ccc(CN(C(=O)[C@@H](N)Cc2ccc(C(N)=O)cc2)[C@@H](C)c2nc(-c3ccccc3)c[nH]2)cc1C(=O)O [Cpd 4]
Delta opioid receptor; read-out: r Ki δ
  pKi: 7.96 and 7.77
Human mu opioid receptor; read-out: hKi μ
  pKi: 8.26

## COC(=O)c1cc(CN(C(=O)[C@@H](N)Cc2c(C)cc(C(N)=O)cc2C)[C@@H](C)c2nc(-c3ccccc3)c[nH]2)ccc1OC [Cpd 17]
Delta opioid receptor; read-out: r Ki δ
  pKi: 7.22
Human mu opioid receptor; read-out: hKi μ
  pKi: 8.66
[1]
  MOR GTP binding assay_v2 (% I): 8.71%
  pEC50: 8.60

## CCN(C(=O)[C@@H](N)Cc1ccc(O)cc1)[C@H](C)c1nc(-c2ccccc2)c[nH]1 [Cpd 214]
Delta opioid receptor; read-out: r Ki δ
  pKi: 6.51
Human mu opioid receptor; read-out: hKi μ
  pKi: 7.54
[1]
  MOR GTP binding assay_v1 (% I): 3.00%
  MOR GTP assay_v1 % of Basal: 295.00%

## C[C@H](c1nc(-c2ccccc2)c[nH]1)N(C)C(=O)[C@@H](N)Cc1ccc(C(N)=O)cc1 [Cpd 203]
Delta opioid receptor; read-out: r Ki δ
  pKi: 7.31
Human mu opioid receptor; read-out: hKi μ
  pKi: 7.86
[1]
  MOR GTP binding assay_v1 (% I): 20.00%
  MOR GTP assay_v1 % of Basal: 331.00%

## Cc1cc(O)cc(C)c1C[C@H](N)C(=O)N(Cc1nc(-c2ccccc2)c[nH]1)CC1CC1 [Cpd 192]
Delta opioid receptor; read-out: r Ki δ
  pKi: 8.12
Human mu opioid receptor; read-out: hKi μ
  pKi: 9.21
[1]
  MOR GTP binding assay_v1 (% I): 30.00%
  MOR GTP assay_v1 % of Basal: 383.00%

## Cc1cc(O)cc(C)c1C[C@H](N)C(=O)N(Cc1ccnc2ccccc12)[C@@H](C)c1nc(-c2ccccc2)c[nH]1 [Cpd 246]
Delta opioid receptor; read-out: r Ki δ
  pKi: 10.46
Human mu opioid receptor; read-out: hKi μ
  pKi: 8.25
[1]
  MOR GTP binding assay_v2 (% I): 21.30%
  pEC50: 8.35

## Cc1cc(O)cc(C)c1C[C@H](N)C(=O)N(Cc1nc(-c2cc(C(F)(F)F)cc(C(F)(F)F)c2)c(C)[nH]1)C(C)C [Cpd 164]
Delta opioid receptor; read-out: r Ki δ
  pKi: 6.92
Human mu opioid receptor; read-out: hKi μ
  pKi: 7.79
[1]
  MOR GTP binding assay_v1 (% I): 1.00%

## Cc1cc(O)cc(C)c1C[C@H](N)C(=O)N(C)[C@@H](C)c1nc(Cc2ccccc2)c[nH]1 [Cpd 205]
Delta opioid receptor; read-out: r Ki δ
  pKi: 8.35
[1]
  MOR GTP binding assay_v1 (% I): 1.00%
  MOR GTP assay_v1 % of Basal: 566.00%

## C[C@@H](c1nc(-c2ccccc2)c[nH]1)N(Cc1ccccc1)C(=O)[C@@H](N)Cc1ccc(O)cc1 [Cpd 219]
Delta opioid receptor; read-out: r Ki δ
  pKi: 7.06
Human mu opioid receptor; read-out: hKi μ
  pKi: 7.79
[1]
  MOR GTP binding assay_v1 (% I): 1.00%
  MOR GTP assay_v1 % of Basal: 611.00%

## CC(C)N(C(=O)[C@@H](N)Cc1ccc(O)cc1)[C@@H](C)c1nc(-c2ccccc2)c[nH]1 [Cpd 225]
Delta opioid receptor; read-out: r Ki δ
  pKi: 6.95
Human mu opioid receptor; read-out: hKi μ
  pKi: 8.85
[1]
  MOR GTP binding assay_v1 (% I): 1.00%
  MOR GTP assay_v1 % of Basal: 657.00%

## C[C@H](c1nc(-c2ccccc2)c[nH]1)N(Cc1ccccc1)C(=O)[C@@H](N)Cc1ccc(O)cc1 [Cpd 221]
Delta opioid receptor; read-out: r Ki δ
  pKi: 8.02
Human mu opioid receptor; read-out: hKi μ
  pKi: 9.38
[1]
  MOR GTP binding assay_v1 (% I): 13.00%
  MOR GTP assay_v1 % of Basal: 427.00%

## COc1ccc(CN(C(=O)[C@@H](N)Cc2c(C)cc(C(N)=O)cc2C)[C@@H](C)c2nc(-c3ccccc3)c[nH]2)cc1OC [Cpd 75]
Delta opioid receptor; read-out: r Ki δ
  pKi: 9.18
Human mu opioid receptor; read-out: hKi μ
  pKi: 8.59

## Cc1cc(O)cc(C)c1C[C@H](N)C(=O)N(Cc1nc(-c2ccccc2)c(C)[nH]1)C(C)C [Cpd 166]
Delta opioid receptor; read-out: r Ki δ
  pKi: 8.25 and 7.92
Human mu opioid receptor; read-out: hKi μ
  pKi: 9.41 and 9.30
[1]
  MOR GTP binding assay_v1 (% I): 1.00%

## CCN(C(=O)[C@@H](N)Cc1ccc(O)cc1)[C@@H](C)c1nc(-c2ccccc2)c[nH]1 [Cpd 215]
Delta opioid receptor; read-out: r Ki δ
  pKi: 6.90
Human mu opioid receptor; read-out: hKi μ
  pKi: 8.82
[1]
  MOR GTP binding assay_v1 (% I): 1.00%
  MOR GTP assay_v1 % of Basal: 606.00%

## Cc1cc(O)cc(C)c1C[C@H](N)C(=O)N(Cc1nc(-c2ccccc2)c[nH]1)C1CCCCC1 [Cpd 190]
Delta opioid receptor; read-out: r Ki δ
  pKi: 7.86
[1]
  MOR GTP binding assay_v1 (% I): 70.00%

## Cc1cc(C(N)=O)cc(C)c1C[C@H](N)C(=O)N(Cc1ccc(C(=O)O)o1)[C@@H](C)c1nc(-c2ccccc2)c[nH]1 [Cpd 256]
Delta opioid receptor; read-out: r Ki δ
  pKi: 8.42
Human mu opioid receptor; read-out: hKi μ
  pKi: 8.70
[1]
  MOR GTP binding assay_v2 (% I): 29.40%
  pEC50: 7.89

## COc1ccc(CN(C(=O)[C@@H](N)Cc2c(C)cc(C(N)=O)cc2C)[C@@H](C)c2nc(-c3ccccc3)c[nH]2)cc1C(=O)O [Cpd 18]
Delta opioid receptor; r Ki δ
  pKi: 7.84 to 9.42
Human mu opioid receptor; hKi μ
  pKi: 8.77
[1]
  MOR GTP binding assay_v2 (% I): 7.54%
  pEC50: 9.00

## COc1ccc(CN(C(=O)[C@@H](N)Cc2ccc(O)cc2)[C@@H](C)c2nc(-c3ccccc3)c[nH]2)cc1C(=O)O [Cpd 261]
Delta opioid receptor; read-out: r Ki δ
  pKi: 8.10
Human mu opioid receptor; read-out: hKi μ
  pKi: 8.59 and 8.89
[1]
  MOR GTP binding assay_v2 (% I): 5.88%
  pEC50: 7.77

## Cc1cc(O)cc(C)c1C[C@H](N)C(=O)N(Cc1nc(-c2ccc(F)cc2)c(C)[nH]1)C(C)C [Cpd 163]
Delta opioid receptor; read-out: r Ki δ
  pKi: 8.35
Human mu opioid receptor; read-out: hKi μ
  pKi: 9.17
[1]
  MOR GTP binding assay_v1 (% I): 1.00%

## COc1ccc(CN(C(=O)[C@@H](N)Cc2c(C)cc(O)cc2C)[C@@H](C)c2nc(-c3ccccc3)c[nH]2)cc1C(=O)O [Cpd 260]
Delta opioid receptor; read-out: r Ki δ
  pKi: 9.89
Human mu opioid receptor; read-out: hKi μ
  pKi: 9.24
[1]
  MOR GTP binding assay_v2 (% I): 2.89%
  pEC50: 8.82

## COc1ccc(CN(C(=O)[C@@H](N)Cc2c(C)cc(C(N)=O)cc2C)[C@@H](C)c2nc(-c3ccccc3)c[nH]2)cc1-c1nnn[nH]1 [Cpd 8]
Delta opioid receptor; read-out: r Ki δ
  pKi: 9.37 and 9.82
Human mu opioid receptor; read-out: hKi μ
  pKi: 8.60 and 8.36
[1]
  MOR GTP binding assay_v2 (% I): 13.95%
  pEC50: 8.92

## Cc1cc(C(N)=O)cc(C)c1C[C@H](N)C(=O)N(Cc1ccccc1)[C@@H](C)c1nc(-c2ccccc2)c[nH]1 [Cpd 114]
Delta opioid receptor; read-out: r Ki δ
  pKi: 7.92
Human mu opioid receptor; read-out: hKi μ
  pKi: 8.86
[1]
  MOR GTP binding assay_v1 (% I): 13.20%
  MOR GTP assay_v1 % of Basal: 717.59%

## Cc1cc(O)cc(C)c1C[C@H](N)C(=O)N(Cc1nc(-c2ccccc2)c[nH]1)C(C)C [Cpd 194]
Delta opioid receptor; read-out: r Ki δ
  pKi: 7.83
Human mu opioid receptor; read-out: hKi μ
  pKi: 9.89
[1]
  MOR GTP binding assay_v1 (% I): 1.00%
  MOR GTP assay_v1 % of Basal: 558.00%

## CCN(C(=O)[C@@H](N)Cc1c(C)cc(O)cc1C)[C@H](C)c1nc(-c2ccccc2)c[nH]1 [Cpd 217]
Delta opioid receptor; read-out: r Ki δ
  pKi: 8.27
[1]
  MOR GTP binding assay_v1 (% I): 1.00%
  MOR GTP assay_v1 % of Basal: 599.00%

## COC(=O)c1ccc(CN(C(=O)[C@@H](N)Cc2c(C)cc(C(N)=O)cc2C)[C@@H](C)c2nc(-c3ccccc3)c[nH]2)o1 [Cpd 257]
Human mu opioid receptor; read-out: hKi μ
  pKi: 8.47
[1]
  MOR GTP binding assay_v2 (% I): 10.96%
  pEC50: 8.41

## Cc1cc(O)cc(C)c1C[C@H](N)C(=O)N(C)[C@H](C)c1nc(-c2ccccc2)c[nH]1 [Cpd 206]
Delta opioid receptor; read-out: r Ki δ
  pKi: 8.24
[1]
  MOR GTP binding assay_v1 (% I): 1.00%
  MOR GTP assay_v1 % of Basal: 446.00%

## Cc1cc(C(N)=O)cc(C)c1C[C@H](N)C(=O)N(Cc1ccc(C(=O)O)cc1)[C@@H](C)c1nc(-c2ccccc2)c[nH]1 [Cpd 50]
Delta opioid receptor; read-out: r Ki δ
  pKi: 9.24
Human mu opioid receptor; read-out: hKi μ
  pKi: 8.85

## CCN(C(=O)[C@@H](N)Cc1c(C)cc(O)cc1C)[C@@H](C)c1nc(-c2ccccc2)c[nH]1 [Cpd 216]
Delta opioid receptor; read-out: r Ki δ
  pKi: 8.94
[1]
  MOR GTP binding assay_v1 (% I): 1.00%
  MOR GTP assay_v1 % of Basal: 666.00%

## COC(=O)c1ccc(CN(C(=O)[C@@H](N)Cc2ccc(C(N)=O)cc2)[C@@H](C)c2nc(-c3ccccc3)c[nH]2)o1 [Cpd 303]
Human mu opioid receptor; read-out: hKi μ
  pKi: 8.42
[1]
  MOR GTP binding assay_v2 (% I): 1.00%
  pEC50: 7.52

## Cc1cc(O)cc(C)c1C[C@H](N)C(=O)N(Cc1cccc(C(=O)O)c1)[C@@H](C)c1nc(-c2ccccc2)c[nH]1 [Cpd 48]
Human mu opioid receptor; read-out: hKi μ
  pKi: 9.40
[1]
  MOR GTP binding assay_v2 (% I): 24.53%
  pEC50: 8.66

## Cc1cc(C(N)=O)cc(C)c1C[C@H](N)C(=O)N(Cc1cccc(-c2nnn[nH]2)c1)[C@@H](C)c1nc(-c2ccccc2)c[nH]1 [Cpd 242]
Delta opioid receptor; read-out: r Ki δ
  pKi: 9.74
Human mu opioid receptor; read-out: hKi μ
  pKi: 8.63

## COc1ccc(CN(C(=O)[C@@H](N)Cc2c(C)cc(C(N)=O)cc2C)[C@@H](C)c2nc(-c3ccc(I)cc3)c[nH]2)cc1C(=O)O [Cpd 289]
Human mu opioid receptor; read-out: hKi μ
  pKi: 8.66
